Experimental data: patent US12077503B2, “Substituted cyclic amides and their use as herbicides” (FMC CORPORATION, priority 2015, dated 2024)

How the values were obtained:
Assay type in all cases: in vivo
[1] = tested on: wheat (Triticum aestivum); test: Test A preemergence; details: for Plant response rating, Wheat: 125 g ai/ha, preemergence, 0 to 100 scale (0 no effect, 100 complete control); for Wheat plant response rating (0 to 100 scale): Preemergence, 500 g ai/ha, 0 is no effect, 100 is complete control
Method in brief: (§1)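 Compounds were formulated in a non-phytotoxic solvent mixture with surfactant and applied as a preemergence directed soil spray after seeding, or sprayed postemergence over plants 2 to 10 cm tall at the one- to two-leaf stage. Evaluation after about 10 d compared treated with untreated controls, using a scale from 0 (no effect) to 100 (complete control).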

[2] = tested on: morningglory (Ipomoea spp.); test: Test A preemergence; details: for Plant response rating, Morningglory: 125 g ai/ha, preemergence, 0 to 100 scale (0 no effect, 100 complete control); for Morningglory plant response rating (0 to 100 scale): Preemergence, 500 g ai/ha, 0 is no effect, 100 is complete control
Method in brief: as §1

[3] = tested on: velvetleaf (Abutilon theophrasti); test: Test A preemergence; details: for Plant response rating, Velvetleaf: 125 g ai/ha, preemergence, 0 to 100 scale (0 no effect, 100 complete control); for Velvetleaf plant response rating (0 to 100 scale): Preemergence, 500 g ai/ha, 0 is no effect, 100 is complete control
Method in brief: as §1

[4] = tested on: giant foxtail (Setaria faberii); test: Test A preemergence; details: for Plant response rating, Foxtail, Giant: 125 g ai/ha, preemergence, 0 to 100 scale (0 no effect, 100 complete control); for Foxtail, Giant plant response rating (0 to 100 scale): Preemergence, 500 g ai/ha, 0 is no effect, 100 is complete control
Method in brief: as §1

corn (Zea mays) [5] = test: Test A preemergence; details: for Plant response rating, Corn: 125 g ai/ha, preemergence, 0 to 100 scale (0 no effect, 100 complete control); for Corn plant response rating (0 to 100 scale): Preemergence, 500 g ai/ha, 0 is no effect, 100 is complete control
Method in brief: as §1

[6] = tested on: crabgrass, large (Digitaria sanguinalis); test: Test A preemergence; details: for Plant response rating, Crabgrass, Large: 125 g ai/ha, preemergence, 0 to 100 scale (0 no effect, 100 complete control); for Crabgrass, Large plant response rating (0 to 100 scale): Preemergence, 500 g ai/ha, 0 is no effect, 100 is complete control
Method in brief: as §1

[7] = tested on: pigweed (Amaranthus retroflexus); test: Test A preemergence; details: for Plant response rating, Pigweed: 125 g ai/ha, preemergence, 0 to 100 scale (0 no effect, 100 complete control); for Pigweed plant response rating (0 to 100 scale): Preemergence, 500 g ai/ha, 0 is no effect, 100 is complete control
[8] = tested on: barnyardgrass (Echinochloa crus-galli); test: Test A preemergence; details: for Plant response rating, Barnyardgrass: 125 g ai/ha, preemergence, 0 to 100 scale (0 no effect, 100 complete control); for Barnyardgrass plant response rating (0 to 100 scale): Preemergence, 500 g ai/ha, 0 is no effect, 100 is complete control
Method in brief: as §1

[9] = tested on: ducksalad (Heteranthera limosa); test: Test B flooded paddy test; details: Flood, 0 to 100 scale where 0 is no effect and 100 is complete control, 13 to 15 d
Method in brief: (§2)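 Evaluation by eye, against controls, occurred 13–15 d post-treatment in a greenhouse, using a 0 (no effect) to 100 (complete control) scale. Application was into the paddy water, 3 cm deep over the soil, on 2-leaf plants.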

rice (Oryra sativa) = test: Test B flooded paddy test; details: Flood, 0 to 100 scale where 0 is no effect and 100 is complete control, 13 to 15 d
Method in brief: as §2

[10] = tested on: sedge, umbrella (small-flower umbrella sedge, Cyperus difformis); test: Test B flooded paddy test; details: Flood, 0 to 100 scale where 0 is no effect and 100 is complete control, 13 to 15 d
Method in brief: as §2

[11] = tested on: barnyardgrass (Echinochloa crus-galli); test: Test B flooded paddy test; details: Flood, 0 to 100 scale where 0 is no effect and 100 is complete control, 13 to 15 d
Method in brief: as §2

[12] = tested on: wheat (Triticum aestivum); test: Test A postemergence
Method in brief: as §1

[13] = tested on: morningglory (Ipomoea spp.); test: Test A postemergence
Method in brief: as §1

[14] = tested on: velvetleaf (Abutilon theophrasti); test: Test A postemergence
Method in brief: as §1

[15] = tested on: giant foxtail (Setaria faberii); test: Test A postemergence
Method in brief: as §1

corn (Zea mays) [16] = test: Test A postemergence
Method in brief: as §1

[17] = tested on: crabgrass, large (Digitaria sanguinalis); test: Test A postemergence
Method in brief: as §1

[18] = tested on: pigweed (Amaranthus retroflexus); test: Test A postemergence
Method in brief: as §1

[19] = tested on: barnyardgrass (Echinochloa crus-galli); test: Test A postemergence
Method in brief: as §1

[20] = 500 g ai/ha, postemergence, 0 to 100 scale, 0 no effect, 100 complete control
[21] = Postemergence, 125 g ai/ha, visual injury, 0 to 100 scale (0 no effect, 100 complete control), approx. 10 d

O=C1NCC(c2cccnc2)C1C(=O)Nc1ccccc1C(F)(F)F (racemic) [Compound 352]
0: Plant response rating, Wheat [1] | Wheat plant response rating (0 to 100 scale) [1] | Plant response rating, Morningglory [2] | Morningglory plant response rating (0 to 100 scale) [2] | Plant response rating, Velvetleaf [3] | Velvetleaf plant response rating (0 to 100 scale) [3] | Plant response rating, Foxtail, Giant [4] | Foxtail, Giant plant response rating (0 to 100 scale) [4] | Plant response rating, Corn (corn (Zea mays) [5]) | Corn plant response rating (0 to 100 scale) (corn (Zea mays) [5]) | Plant response rating, Crabgrass, Large [6] | Crabgrass, Large plant response rating (0 to 100 scale) [6] | Plant response rating, Pigweed [7] | Pigweed plant response rating (0 to 100 scale) [7] | Plant response rating, Barnyardgrass [8] | Barnyardgrass plant response rating (0 to 100 scale) [8] | Plant response rating, Ducksalad ([9]; 250 g ai/ha) | Plant response rating, Rice (rice (Oryra sativa); 250 g ai/ha) | Plant response rating, Sedge, Umbrella ([10]; 250 g ai/ha) | Plant response rating, Barnyardgrass ([11]; 250 g ai/ha) | Plant response rating, Wheat [12, 20] | Plant response rating, Wheat [12, 21] | Plant response rating, Morningglory [13, 20] | Plant response rating, Morningglory [13, 21] | Plant response rating, Velvetleaf [14, 20] | Plant response rating, Velvetleaf [14, 21] | Plant response rating, Foxtail, Giant [15, 20] | Plant response rating, Foxtail, Giant [15, 21] | Plant response rating, Corn (corn (Zea mays) [16]; [20]) | Plant response rating, Corn (corn (Zea mays) [16]; [21]) | Plant response rating, Crabgrass, Large [17, 20] | Plant response rating, Crabgrass, Large [17, 21] | Plant response rating, Pigweed [18, 20] | Plant response rating, Pigweed [18, 21] | Plant response rating, Barnyardgrass [19, 20] | Plant response rating, Barnyardgrass [19, 21]

O=C1NCC(c2ccc(F)c(F)c2)C1C(=O)Nc1n[nH]cc1Br (racemic) [Compound 361]
0: Plant response rating, Wheat [1] | Wheat plant response rating (0 to 100 scale) [1] | Plant response rating, Morningglory [2] | Morningglory plant response rating (0 to 100 scale) [2] | Plant response rating, Velvetleaf [3] | Velvetleaf plant response rating (0 to 100 scale) [3] | Plant response rating, Foxtail, Giant [4] | Foxtail, Giant plant response rating (0 to 100 scale) [4] | Plant response rating, Corn (corn (Zea mays) [5]) | Corn plant response rating (0 to 100 scale) (corn (Zea mays) [5]) | Plant response rating, Crabgrass, Large [6] | Crabgrass, Large plant response rating (0 to 100 scale) [6] | Plant response rating, Pigweed [7] | Pigweed plant response rating (0 to 100 scale) [7] | Plant response rating, Barnyardgrass [8] | Barnyardgrass plant response rating (0 to 100 scale) [8] | Plant response rating, Ducksalad ([9]; 250 g ai/ha) | Plant response rating, Rice (rice (Oryra sativa); 250 g ai/ha) | Plant response rating, Sedge, Umbrella ([10]; 250 g ai/ha) | Plant response rating, Barnyardgrass ([11]; 250 g ai/ha) | Plant response rating, Wheat [12, 20] | Plant response rating, Wheat [12, 21] | Plant response rating, Morningglory [13, 20] | Plant response rating, Morningglory [13, 21] | Plant response rating, Velvetleaf [14, 20] | Plant response rating, Velvetleaf [14, 21] | Plant response rating, Foxtail, Giant [15, 20] | Plant response rating, Foxtail, Giant [15, 21] | Plant response rating, Corn (corn (Zea mays) [16]; [20]) | Plant response rating, Corn (corn (Zea mays) [16]; [21]) | Plant response rating, Crabgrass, Large [17, 20] | Plant response rating, Crabgrass, Large [17, 21] | Plant response rating, Pigweed [18, 20] | Plant response rating, Pigweed [18, 21] | Plant response rating, Barnyardgrass [19, 20] | Plant response rating, Barnyardgrass [19, 21]

O=C1NCC(c2ccc(-c3ccccc3)cc2)C1C(=O)Nc1ccccc1C(F)(F)F (racemic) [Compound 367]
0: Plant response rating, Wheat [1] | Wheat plant response rating (0 to 100 scale) [1] | Plant response rating, Morningglory [2] | Morningglory plant response rating (0 to 100 scale) [2] | Plant response rating, Velvetleaf [3] | Velvetleaf plant response rating (0 to 100 scale) [3] | Plant response rating, Foxtail, Giant [4] | Foxtail, Giant plant response rating (0 to 100 scale) [4] | Plant response rating, Corn (corn (Zea mays) [5]) | Corn plant response rating (0 to 100 scale) (corn (Zea mays) [5]) | Plant response rating, Crabgrass, Large [6] | Crabgrass, Large plant response rating (0 to 100 scale) [6] | Plant response rating, Pigweed [7] | Pigweed plant response rating (0 to 100 scale) [7] | Plant response rating, Barnyardgrass [8] | Barnyardgrass plant response rating (0 to 100 scale) [8] | Plant response rating, Ducksalad ([9]; 1000 g ai/ha) | Plant response rating, Rice (rice (Oryra sativa); 1000 g ai/ha) | Plant response rating, Sedge, Umbrella ([10]; 1000 g ai/ha) | Plant response rating, Barnyardgrass ([11]; 1000 g ai/ha) | Plant response rating, Wheat [12, 20] | Plant response rating, Wheat [12, 21] | Plant response rating, Morningglory [13, 20] | Plant response rating, Morningglory [13, 21] | Plant response rating, Velvetleaf [14, 20] | Plant response rating, Velvetleaf [14, 21] | Plant response rating, Foxtail, Giant [15, 20] | Plant response rating, Foxtail, Giant [15, 21] | Plant response rating, Corn (corn (Zea mays) [16]; [20]) | Plant response rating, Corn (corn (Zea mays) [16]; [21]) | Plant response rating, Crabgrass, Large [17, 20] | Plant response rating, Crabgrass, Large [17, 21] | Plant response rating, Pigweed [18, 20] | Plant response rating, Pigweed [18, 21] | Plant response rating, Barnyardgrass [19, 20] | Plant response rating, Barnyardgrass [19, 21]
